The record followed here is patent US20260153494A1 (AGRICUL TURAL UNIVERSITY OF ATHENS, priority 2023, published 2026).

Data set [1] concerns FGGsh101 (phi class glutathione S-transferase GSTF mutant sh101, derived by DNA shuffling, with N-terminal FGG tag, SEQ ID NO: 1). It is filed as biochemical. As for the experimental part: (§1) GST activity assays were carried by using the 1-chloro-2,4-dinitrobenzene (CDNB)/glutathione (GSH) substrate system as described previously (Axarli et al., 2017; Georgakis et al., 2020). Determination of enzyme activity was conducted using 1 mM CDNB and 2.5 mM GSH final concentration in 0.1 M KH2PO4, PH 6.5 and 37° C. Kinetic analysis of the potential supramolecular protein complexes was performed as previously described (Axarli et al., 2016, Georgakis et al., 2020) five days after addition of CB[8] to the enzyme solution in 1:1 stoichiometry. Protein precipitates were removed by centrifugation at 10,000 rpm for 10 min prior to the analysis. The steady state data were processed using GraphPad Prism version 7 (GraphPad Prism Software, Inc.). Turnover numbers were evaluated for one active site per subunit of enzyme. Specific activity (SA) was estimated in micromoles per minute per milligram of protein (μmol min-1 mg-1). Determination of protein concentration was carried using the Bradford assay with bovine serum albumin as standard (Bradford, 1976).
(§2) The kinetic parameters of FGGsh101 and FGGsh155 were analyzed both in absence of CB[8] and five days after the addition of the macrocyclic host in 1:1 ratio. […] (see Example 3)

In data set [2] the test system is FGGsh101:CB[8] (FGG-tagged phi class glutathione S-transferase GSTF mutant sh101, SEQ ID NO: 1, with cucurbit[8]uril 1:1). It is filed as biochemical. The procedure: as §1, §2
The subject of data set [3] is FGGsh155:CB[8] hexamer (FGG-tagged phi class glutathione S-transferase GSTF mutant sh155, SEQ ID NO: 2, with cucurbit[8]uril 1:1). It is filed as biochemical. The procedure:
as §1, §2

Data set [4] relates to FGGsh155 (phi class glutathione S-transferase GSTF mutant sh155, derived by DNA shuffling, with N-terminal FGG tag, SEQ ID NO: 2). It counts as biochemical. As for the experimental part:
as §1, §2

Data set [5] concerns Immobilized FGGsh155:CB[8] hexamer (GSTF mutant sh155, FGG-tagged, SEQ ID NO: 2, with cucurbit[8]uril 1:1, on glutaraldehyde-crosslinked chitosan). It is filed as biochemical. The procedure:
Initially, 2%, 3% and 4% (w/v) medium molecular weight chitosan (molecular weight of 190 to 310 kDa) was dissolved by continuous stirring in 2% (v/v) acetic acid. The formed chitosan gels were stored at 4° C. until the following day (12 to 24 hours) in order to remove any trapped air. For the immobilisation, 180 mg of chitosan gel were deposited by a syringe at the bottom of a cuvette with 4 mL capacity. Then 50 μL of different concentrations of GA solution [0.4%, 0.5%, 0.6%, 0.7%, and 1% (v/v)] were added and the mixture was lightly stirred with a pipette tip. The carrier mixture was left for an hour so that the reaction of GA binding to the amino groups of the carrier was accomplished. GA was diluted in 20 mM KH2PO4, PH 7.0. Afterwards, the carrier was washed thrice with 2 mL 20 mM KH2PO4, PH 7, in order to remove any unbound GA molecules. The immobilization of FGGsh155:CB[8] was performed five days after the addition of the CB[8] macrocyclic agent at stoichiometry of 1:1, for uniformity of the experiments. Thus, 600 μL of the enzyme solution with 0.7-0.8 mg/mL concentration were added to the activated chitosan medium. The enzyme was incubated with the carrier at 25° C. overnight with stirring at 50-80 rpm. The following day, the volume of the enzyme solution that wasn't absorbed by the carrier was removed and the carrier was incubated with 600 μL of 2 mg/mL NaBH4 solution for 30 min. This step was conducted in order to stabilize the Schiff's bases that form due to the reaction of GA with the enzyme amino groups (Barbosa et al., 2014). Finally, three washes were performed with 20 mM KH2PO4, PH 7, for the removal of any unbound enzyme. Protein binding efficiency to the carrier (%) and retention of enzyme activity (%) were defined as: […]
Determination of the enzyme activity for the immobilised enzyme complex FGGsh155:CB[8] was performed using the CDNB/GSH substrate system with 20 mM KH2PO4, PH 7, as a reaction solution at 37° C., as has been previously described (Georgakis et al., 2020a; Axarli et al., 2017; Cho et al., 2005). The rate assay was recorded for 300 s at 340 nm.
Kinetic analysis for GSH was performed using standard CDNB concentration (1 mM) and varying GSH concentrations. Correspondingly, standard concentration of GSH substrate (2.5 mM) and varying concentrations of CDNB were utilised in the kinetic analysis for CDNB.
The kinetic parameters of the immobilized FGGsh155:CB[8] were calculated using the CDNB/GSH substrate system in 20 mM KH2PO4, PH 7.0, at 37° C. (FIG. 20) depicts the dependence of the enzyme's reaction rate on the substrate concentration. […] Respectively the kinetic analysis for GSH was carried with standard CDNB concentration (1 mM) and different GSH concentrations. […] The reduction in kcat is usually expected after immobilization (Neira & Herr, 2017).

Data set [6] in a line: Thermal stability (Tm) by differential scanning fluorimetry. It counts as physicochemical. To be noted: for second distinct melting point Tm2 / increase in Tm1: after addition of CB[8]; for increase in Tm1: versus Tm0, especially 1:1 stoichiometry. The procedure:
The thermostability of FGG-GSTFs, FGGsh101 and FGGsh155 was assessed by differential scanning fluorimetry (DSF) in the presence of the macrocyclic compound CB[8]. CB[8] was added in stoichiometry of 1:1 and 2:1 enzyme to host concentration. The reaction was performed in 50 mM KH2PO4 solution, pH 7.14, using either 15 μM enzyme and 15 μM CB[8] (1:1) or 15 μM enzyme and 7.5 μM CB[8] (2:1). A “control” reaction for each ratio was also measured, where only CB[8]'s solvent of was added to the enzyme. Differential scanning fluorimetry was performed in 20 mM KH2PO4 buffer, pH 7, with 4 μg of protein sample, according to published methods (Huynh & Partch, 2015). Thermal shift assays we carried using a Real-time PCR StepOne™ instrument (Applied Biosystems, USA) and the SYPRO Orange protein dye at a temperature range between 15° C. and 99° C. with a ramping rate of 1%. Temperature of protein denaturation midpoint (Tm) was estimated by the first derivative of the normalized fluorescence data.
(Differential scanning fluorimetry follows unfolding on heating by fluorescence.)

A short description of data set [7]: Steady-state kinetic analysis of FGG-GSTFs, CDNB/GSH substrate system. The note with it: for catalytic constant: enzyme samples with CB[8] in 1:1 stoichiometry; for kcat: free enzyme. It is filed as biochemical. As for the experimental part: as §1
The kinetic parameters of FGGsh101 and FGGsh155 were analyzed both in absence of CB[8] and five days after the addition of the macrocyclic host in 1:1 ratio. This was determined according to the fluorescence intensity monitoring experiments, where the reduction of fluorescence emission appeared to reach a plateau after 4-5 days. (see Example 3)

Data set [8] is described as follows: Enzyme stability upon storage at 4° C. (retention of activity). It counts as physicochemical. The note with it: first twenty days. The procedure: Enzymatic stability was determined as the retention of enzyme activity overtime upon storage at 4° C. for the FGGsh155:CB[8] before and after immobilization, as well as the unmodified form of FGGsh155. Monitoring of the enzyme inactivation was determined using the CDNB/GSH substrate system.

Where [9] appears, read: CDNB/GSH substrate system, pH 6.5, 37° C., one active site per subunit.

Numbering of substitutions follows the chain as printed.

Turning to `O=[N+]([O-])c1ccc(Cl)c([N+](=O)[O-])c1` [CDNB, 1-chloro-2,4-dinitrobenzene], the “nH (Hill coefficient)” value is reported as 1.17 ± 0.03 in data set [1] (CDNB variable, pH 6.5, 37° C.); 1.1 ± 0.06 in data set [2] (CDNB variable, five days after CB[8] addition 1:1, pH 6.5, 37° C.); 1.01 ± 0.02 in data set [3] (free enzyme, CDNB variable, five days after CB[8] addition 1:1, pH 6.5, 37° C.); 1.01 ± 0.03 in data set [4] (CDNB variable, pH 6.5, 37° C.); 1.47 ± 0.12 in data set [5] (CDNB variable, GSH 2.5 mM, pH 7.0, 37° C.). The catalytic constant (kcat) was determined as 2.657 ± 0.0202 s⁻¹ in data set [1] (setting [9]); 2.248 ± 0.0547 s⁻¹ in data set [2] (CDNB/GSH substrate system, five days after CB[8] addition 1:1, pH 6.5, 37° C.); 2.02 ± 0.019 s⁻¹ in data set [3] (free enzyme, CDNB/GSH substrate system, five days after CB[8] addition 1:1, pH 6.5, 37° C.); 2.807 ± 0.0453 s⁻¹ in data set [4] (setting [9]); 0.0213 ± 0.002 s⁻¹ in data set [5] (CDNB/GSH substrate system, 20 mM KH2PO4, pH 7.0, 37° C.). The “kcat/S0.5 CDNB” value in data set [1] (pH 6.5, 37° C.) is 6625.2 M⁻¹ s⁻¹; in data set [2] (five days after CB[8] addition 1:1, pH 6.5, 37° C.), 4014.8 M⁻¹ s⁻¹; in data set [3] (free enzyme, five days after CB[8] addition 1:1, pH 6.5, 37° C.), 2489.7 M⁻¹ s⁻¹; in data set [4] (pH 6.5, 37° C.), 3645 M⁻¹ s⁻¹; in data set [5] (20 mM KH2PO4, pH 7.0, 37° C.), 19 M⁻¹ s⁻¹. In addition, the “S0.5 CDNB” value in data set [3] (free enzyme, GSH at fixed concentration, five days after CB[8] addition 1:1, pH 6.5, 37° C.) was determined as 0.81 ± 0.05 mM.

As for `N[C@@H](CCC(=O)N[C@@H](CS)C(=O)NCC(=O)O)C(=O)O` [GSH, glutathione], the “kcat/Km GSH” value in data set [1] (pH 6.5) was 1978 M⁻¹ s⁻¹; in data set [2] (pH 6.5), 1594 M⁻¹ s⁻¹; in data set [3] (pH 6.5), 1410 M⁻¹ s⁻¹; in data set [4] (pH 6.5) it was 1896.3 M⁻¹ s⁻¹; in data set [5] (20 mM KH2PO4, pH 7.0, 37° C.), 16.8 M⁻¹ s⁻¹. For the same molecule, the Km was found to be 1360 ± 20 µM in data set [1] (pH 6.5, read-out: Km GSH); 1410 ± 50 µM in data set [2] (pH 6.5, read-out: Km GSH); 1430 ± 30 µM in data set [3] (pH 6.5, read-out: Km GSH); 1480 ± 30 µM in data set [4] (pH 6.5, read-out: Km GSH); 1260 ± 80 µM in data set [5] (CDNB 1 mM, 20 mM KH2PO4, pH 7.0, 37° C., read-out: Km GSH).

B1: sh101: phi class cytosolic glutathione S-transferase mutant from DNA shuffling, without FGG tag (protein)
chain: MFGGAPVKVFGPAMSTNVARVTLCLEEVGAEYEVVNIDFNTMEHKSPEHLARNPFGQIPAFQDGDLLLWESRAISKYVLRKYKTDEVDLLREGNLKEAAMVDVWTEYDAHTYNPALSPIVYECLINPLMRGLPTNQTVVDESLEKLKKVLEVYEARLSQHKYLAGDFVSFADLNHFPYTFYFMATPHAALFDSYPHVKAWWDRLMARPAVKKIAATMVPPKA
With B1, the “effect of CB[8] addition on Tm of enzyme forms that weren't FGG-tagged” value in data set [6] (1:1 and 2:1, almost ten days) is “did not induce the appearance of an additional Tm value”.

B2: FGGsh101: phi class GST mutant sh101 (SEQ ID NO: 1) with N-terminal phenylalanine-glycine-glycine tag; dimer (protein)
chain: B1 chain
modifications: N-terminal FGG tag; dimer
Consider B2, for which, in data set [7], the catalytic constant is 134.9 ± 3.28 min⁻¹ and the “kcat” value worked out at 2.657 ± 0.0202 s⁻¹. In data set [6], the “second distinct melting point Tm2” value was “≈ 85 °C” and the “increase in Tm1” value is 1.5-2 °C.

B3: FGGsh155: phi class GST mutant sh155 (SEQ ID NO: 2) with N-terminal phenylalanine-glycine-glycine tag; dimer (protein)
chain: B1 chain with N36D, N40K, T41A, A51V, W69F, S75A
modifications: N-terminal FGG tag; dimer
Take B3: in data set [7], the catalytic constant is 121 ± 1.14 min⁻¹ and the “kcat” value turned out to be 2.807 ± 0.0453 s⁻¹. Further, in data set [8], the retained activity result was “approximately 50%”. Besides, in data set [6], the “second distinct melting point Tm2” value is “≈ 85 °C” and the “increase in Tm1” value is “up to 3.5 °C”.

As usually defined, the kcat is the number of substrate molecules converted per active site and unit of time at saturation. The term Km denotes the concentration of substrate that gives half-maximal velocity.
